The values below are quoted from earlier work in patent publication US20040171518A1, “Compounds for protein stabilization and methods for their use” (Medtronic MiniMed, Inc., priority 2003, published 2004).

Where two headings read alike, the source gives them in different places.

As to `O=C(O)CCC(=O)NCCCCC1NC(=O)C(CCCCNC(=O)CCC(=O)O)NC1=O` (centres unmarked) [2,5-diketo-3,6-di(4-succinylaminobutyl)piperazine], the solubility entry is listed as “quite insoluble” (acidic aqueous solutions) and “readily soluble” (weakly alkaline aqueous solution).
